Assay results: patent US20220326218A1, “COMPOSITION AND METHOD FOR INHIBITING BORC COMPLEX TO TREAT CANCERS WITH NF1 DEFICIENCY AND DYSREGULATED RAS SIGNALING” (THE TRUSTEES OF DARTMOUTH COLLEGE, priority 2019, published 2022)

How the values were obtained:
U87-MG cells = experiment: Flow cytometry cell cycle distribution (DNA content); format: cell-based, human; conditions: 2 μM, 24 h
Description: U87-MG cells were plated at 500,000 cells/well in a 6-well plate and allowed to adhere overnight. The medium was replaced with cell culture media containing DMSO, 2 μM Y102, 100 nM Doxorubicin, or 100 μM CoCl2 for 24 hours. At the end of the incubation, cells were rinsed twice with PBS, trypsinized, and rinsed again with PBS prior to fixation with BD cytofix/cytoperm for 30 minutes on ice. After washing with BD perm/wash twice, cells were stained with DAPI at a final concentration 0.33 μg/mL in PBS for 30 minutes on ice. Cells were washed twice more with BD perm/wash, and resuspended in PBS for analysis. The cells were transferred to flow cytometry tubes (14-961-10, Fisherbrand) and analyzed using a MacsQuant VYB 8-color flow cytometer. DNA content was detected using the V1 channel. This experiment was repeated twice, and the percentage of cells in each cell cycle stage is shown. 50,000 events per sample were collected and cellular debris was gated out of the dataset.

mitochondria = experiment: MitoTracker Red CMXRos staining of the mitochondrial network; format: cell-based, human; conditions: U87-MG, 24 h; 2 μM Y102, 50 μM HCQ
Description: For MitoTracker Red CMXRos staining, 30 minutes prior to collection medium was removed and replaced with medium containing MitoTracker Red CMXRos at a final concentration of 100 nM (Molecular Probes). Following staining, cells were washed with PBS and fixed with 4% paraformaldehyde without methanol. Cells were washed with PBST, then permeabilized with 0.5% Triton X-100 in PBS. When co-staining with another marker, the staining procedure continued with the blocking step; otherwise, cells were stained with 0.33 μg/mL DAPI in PBS and mounted onto slides in ProLong Gold (Life Technologies).

erg6Δ yeast = experiment: Yeast dose response curves, control strains; format: cell-based, Saccharomyces cerevisiae; conditions: 30° C., 18 h, normalized to DMSO
Description: S. cerevisiae strains were plated at an OD600 of 0.05 in 96-well plates (Falcon) and treated with SC complete containing compound starting at 100 μM, followed by 2-fold serial dilutions to generate a 10-point range of concentrations normalized with DMSO; one row was treated with DMSO as a control. Yeast were incubated for 18 h. To process, the optical density was read using a Spectramax M2 (Molecular Devices) at a wavelength of 600 nm and normalized to DMSO. Each experiment was repeated 2-3 times with 4 technical replicates per experiment.
A high-throughput screen in Saccharomyces cerevisiae lacking a yeast homologue of NF1, IRA2 (ira2Δ) was developed and carried out to identify tool compounds that elicited synthetic lethality with NF1 loss (15). ira2Δ yeast have increased RAS-GTP, which results in increased MAPK and PKA signaling analogous to the pathways that are activated in NF1-deficient Schwann cells (17). […]
More than 5,100 structurally diverse compounds selected from and representative of a >340,000-compound library were screened. […] To determine whether Y102 was also effective in human tumor cells, the efficacy of Y102 was evaluated in two NF1-deficient human cancer cell line models of glioblastoma, U87-MG and U251-MG, and an NF1-deficient Neurofibromatosis type 1-associated MPNST cell line sNF96.2. […]

[1] = system: 8-hydroxyguanosine (8-OHG); experiment: Immunofluorescence staining for oxidative stress marker 8-OHG; format: cell-based, human; conditions: U87-MG, 2 μM, 24 h
Description: U87-MG cells were plated at a concentration of 50,000 cells/well onto precoated poly-D-lysine (PDL) coverslips (Neuvitro) in 24-well plates (Falcon) and allowed to adhere overnight. Medium was removed and replaced with treatment-laced media normalized to DMSO, and cells were treated for the indicated timepoints. At the time of collection, cells were washed with PBS and fixed with 4% paraformaldehyde without methanol (EMS) or 100% methanol (Fischer). Coverslips were washed with Tween20-containing PBS (PBST; Fischer). Following permeabilization with 0.5% Triton X-100 in PBS (Fischer), coverslips were blocked for 1 h at room temperature in IF Buffer (0.05% azide, 0.2% Triton X-100, 2% Normal Goat Serum or, for 8-OHG, Normal Donkey Serum). The following primary antibodies were used for 1 hour at room temperature unless specified: AlexaFluor 488 pre-conjugated anti-γ-H2AX (N1-431) mouse monoclonal (30 minutes; BD Biosciences), anti-cleaved caspase 3 (Asp175) rabbit polyclonal (Cell Signaling), anti-SQSTM1/p62 (D-3) mouse monoclonal (Santa Cruz), anti-8-Hydroxyguanosine goat polyclonal (1:200; Millipore), anti-LAMP1 (D4O1S) mouse monoclonal (O/N at 4° C.; Cell Signaling), anti-BNIP3L/Nix (D4R4B) rabbit monoclonal (O/N at 4° C.; Cell Signaling), anti-FLAG (M2) mouse monoclonal (2 hours at 37° C.; Sigma-Aldrich). […]

Structure (SMILES): Cn1cnnc1S/C=C/C(=O)c1ccc(F)cc1 [Y102]
- cell cycle arrest (cell cycle distribution by DNA content) (U87-MG cells): no indication
- mitochondrial phenotype (perinuclear clustering) (mitochondria): perinuclear clustering of the mitochondria
- effect on growth of control strains at concentrations inhibitory to erg6Δira2Δ yeast (erg6Δ yeast): no effect
- 8-OHG compared to DMSO [1]: increase
- localization of 8-OHG oxidative stress-induced damage [1]: both nuclear and mitochondrial DNA
